Experimental data published in a melting point compilation (Tetko et al.; mined from patent text by program, amines drawn as free bases though some values may be those of a salt).

| Compound | melting point [°C] |
| --- | --- |
| COC1CCC2(C)C(=CC(=O)C3C2CCC2(C)C(OC(C)=O)CCC32)C1 (stereo not given) | 168 to 170 |
| CCCCN(CCCC)c1cc(OC)c(C=O)c(OC)c1 | 55 to 56 |
| Cc1c(C)c2c(c(C)c1NC(=O)NC(C)(C)C)C(c1ccc(C(C)C)cc1)CO2 (stereo not given) | 201 to 202 |
| O=C(c1ccccc1)N1CCc2[nH]c3cccc(-c4ccccc4OC4CCCC4)c3c2CC1 | 187 to 189 |
| CN1Cc2c(-c3nc(CCl)cs3)ncn2-c2ccc(F)cc2C1=O | 239 to 241 |
| Cn1cc(C(=O)Cl)c([N+](=O)[O-])n1 | 68 to 70 |
| CSCc1nc(C)c(C)c(O)n1 | 166 |
| COc1c(N2CC[C@@H](C3(NCCO)CC3)C2)c(F)cc2c(=O)c(C(=O)O)cn([C@@H]3C[C@@H]3F)c12 | 153 to 155 |
| C=Cc1c(NC(=O)OC(C)(C)C)cccc1[N+](=O)[O-] | 120 to 121 |
| N#CC=CC=CC(=O)C(F)(F)F | 123 to 126 |
| COc1ccc(CS[C@@H]2CN[C@H](C(N)=O)C2)cc1 | 120 to 121 |
| Cn1ncc2c1-c1c(Oc3cccnc3OCCN3CCCC3=O)sc(C(=O)O)c1CC2 | 202 to 204 |
| O=C(O)Cc1c(Cl)cc([N+](=O)[O-])cc1Cl | 206 to 207 |
| CN(C)S(=O)(=O)NCC1COc2ccccc2O1 (stereo not given) | 76 to 78 |
| O=c1[nH]cnc2c(CN[C@H](CO)[C@H](O)CO)c[nH]c12 | 230 |
| Nc1nc2ccccc2c2c1nc1n2C(C2CCOCC2)COC1 (stereo not given) | 240 to 243 |
| C=CCNc1nc(NNC(C)(C)C)c2scc(C)c2n1 | 105 to 107 |
| Nc1ccncc1Nc1cccc2cc[nH]c12 | 68 to 70 |
| Cc1ccc(C(=O)N2CCc3nnc(NN=C4CCCCC4)cc3C2)cc1 | 208 to 210 |
| CC(=O)Nc1nc(CCc2ccc(CCC(=O)O)s2)cs1 | 164 to 165 |
| NC(=S)C(CN1CCOCC1)c1ccccn1 (stereo not given) | 102 to 104 |
| Cc1nc(NC(=O)N(C)C)sc1C | 202 to 204 |

| Compound | melting point [°C] |
| --- | --- |
| Clc1cc(NC23CC4CC(CC(C4)C2)C3)nc(N2CCCC2)n1 | 186 to 190 |
| CCOC(=O)NNc1cccc(Cl)n1 | 139 to 141 |
| O=C(Nc1ccc(CNc2nc(Cl)nc3cc(I)ccc23)cc1)c1ccc(Cl)nc1 | 315 |
| CCCCCC(C)C(C)c1cc(O)c2c(c1)OC(C)(C)C1=C2CN(C(C)C(=O)NC(N)=O)CC1 (stereo not given) | 95 to 100 |
| CN1CCC(C(=O)O)(S(=O)(=O)c2ccc(Oc3ccc(Cl)cc3)cc2)CC1 | 185 |
| CCOC(=O)C(=O)c1ccc(OCCCCCCCCCCCCOc2ccccc2)cc1 | 58 to 59 |
| CCOC(=O)N1CCC(N2CCN(CC(=O)Nc3c(C)cccc3C)CC2)CC1Cc1ccc(Cl)c(Cl)c1 (stereo not given) | 101 |
| CC(=O)CCC(=O)C1=Cc2ccccc2C1 | 85 |
| Clc1cc(Cl)c(C(Cl)Cl)nc1Cl | 61 to 62 |
| Cc1cccc(NC(=O)NC2N=C(C3CC3)c3cccc(C)c3N(CC(=O)N3CC4CCC(CC4)C3)C2=O)c1 (stereo not given) | 172 to 174 |
| CCCCCCCCCCOc1ccc(CC(C)NCC(O)c2cccc(Cl)c2)cc1 (stereo not given) | 59 to 61 |
| CCCCc1ccc(NCc2ccc(N(C)C)cc2)cc1 | 60 to 61 |
| Cc1csc2nccn12 | 165 to 168 |
| O=S(=O)(Nc1ccc(Oc2cccc3cccnc23)cc1)c1ccc(Cl)cc1 | 220 |
| N=c1[nH]c2ccc(Cl)cc2c2nc(C3CCCO3)nn12 (stereo not given) | 203 to 206 |
| CC(=O)N1C(C)(C)CC(NC(=O)c2ccc(Cl)c(N)c2)CC1(C)C | 232 to 234 |
| CS(=O)(=O)ON1C(=O)CCC1=O | 148 to 150 |
| Cc1c(CCCCCCCC(=O)O)cccc1C(=O)c1ccc(Cl)cc1 | 70 |
| O=C(Cc1cccc(O)c1)NNC(=O)c1c(OCc2ccccc2)cc(OCc2ccccc2)cc1OCc1ccccc1 | 154 to 155 |
| Cn1nc(C(O)c2ccccc2)nc1NCC(O)COc1cccc(CN2CCCCC2)c1 (stereo not given) | 154 to 157 |
| C[C@@H]1OC(=O)C[C@H]2O[C@@H]12 | 51 to 52 |

Next, values leading:

| melting point [°C] | Compound |
| --- | --- |
| 222 to 225 | Cn1cnc(S(=O)(=O)n2c(CCCC(=O)O)cc3cc(Cl)ccc32)c1 |
| 112 to 114 | CCN1c2ncc(CCc3ccc4ccccc4c3)cc2C(=O)N(C)c2ccc(F)nc21 |
| 158 to 160 | CCC(NC(=O)OCc1ccccc1)C(=O)Nc1ccc(-n2nc(C(F)(F)F)cc2C(F)(F)F)cc1 (stereo not given) |
| 194 to 197 | Cc1c(C(=O)NCc2ccc3c(Br)c(O)ccc3c2)oc2ccccc12 |
| 224 to 227 | COC(=O)c1ccc2nc3n(c(=O)c2c1)CCC3=Cc1ccccc1 |
| 227 to 228 | CC1(C)OC(=O)Nc2ccc(-c3cc(C#N)cc(OC(F)(F)F)c3)cc21 |
| 209 to 211 | CC(C)(C)C(=O)OCN1C(=O)NC2(C1=O)C(=O)N(Cc1ccc(Cl)c(Cl)c1)c1ccccc12 (stereo not given) |
| 100 | Clc1ccc(-c2nc(CCCCCc3nnn[nH]3)oc2-c2ccc(Cl)cc2)cc1 |
| 114 to 116 | Cc1nn(C)c(C)c1Oc1cc(Cl)cc(C#N)c1 |
| 215 to 217 | Oc1ccc(-c2cc3c(Br)c(O)cc(Br)c3o2)cc1 |
| 41 to 42 | CCCCCCN(Cc1ccc(F)cc1)c1ccc(C(=O)OCC)cc1 |
| 146 to 148 | CC(C)(C(=O)O)c1ccc(-c2ccc(Cl)cc2)s1 |
| 129 to 130 | CC(C)(O)c1cc(C#N)ccc1O |
| 210 to 211 | O=C(O)c1ccccc1C=Cc1ccc(-c2cc3ccc4ccccc4c3o2)cc1 |
| > 300 | CC(C)(C)NC(=O)Nc1nc2nc(N)ncc2cc1-c1cccnc1 |
| 64 to 65 | OCCc1cc2c(cc1Cc1ccccc1)OCO2 |
| 204 to 205 | N#Cc1cc(-c2ccccc2)c(=O)n2c1-c1ccccc1CC2 |
| 131 to 133 | CCCCOCCOc1ccc(-c2ccc3c(c2)C=C(C(=O)Nc2ccc(N(C)Cc4nncn4CCC)cc2)CCN3CCC)cc1 |
| 156 to 157 | CC(C)(C)OC(=O)N1CC(COS(C)(=O)=O)c2c1cc(OCc1ccccc1)c1ncccc21 (stereo not given) |

| melting point [°C] | Compound |
| --- | --- |
| 94 to 97 | COc1cc(OCc2ccccn2)ccc1/C=C/c1cc(/C=C/c2ccc3cc[nH]c3c2)n(C(C)O)n1 (stereo not given) |
| 94 to 95 | CCOC(=O)c1ccc2c(N)cccc2c1 |
| 227 to 229 | COCc1ccc(-c2ccc3c(c2)C=C(C(=O)Nc2ccc(CN(C)C4CCOCC4)cc2)CCS3(=O)=O)cc1 |
| 159 to 161 | COCCn1nc2c(N)nc3ccccc3c2c1CCCCNS(C)(=O)=O |
| 236 to 237 | COc1ccc(-c2nc3scc(-c4cc(C(C)(C)C)c(O)c(C(C)(C)C)c4)n3c2-c2ccc(OC)cc2)cc1 |
| 200 to 206 | COc1cc2nc(N3CCc4c(CO)cccc4C3)[nH]c(=O)c2cc1OC |
| 52 to 53 | COC(=O)c1ccc(CCCCc2c(C)cc(C)cc2C)cc1 |
| 109 to 110 | CCOC(=O)c1ccc(C=C(C)c2cc3c(cc2C)C(C)(C)CCC3(C)C)cc1 |
| 142 to 144 | CCOc1ccc2nc(Cl)c(C=NOC)cc2c1 |
| 115 to 117 | CC(C)(C)OC(=O)N1CCC(Oc2ccc(C#N)c(/C=C/N3CCCC3)c2)CC1 |
| 145 to 146 | COC(=O)c1cccc(OS(N)(=O)=O)c1 |
| 249 to 250 | Cc1ccc(-c2c(Cl)nc(-c3ccccc3)nc2NS(=O)(=O)c2ccc(C(C)(C)C)cc2)cc1 |
| 146 to 148 | COc1ccc(CCc2nc(C(F)(F)F)c[nH]2)cc1 |
| 75 to 76 | CCCc1c(OCCCCCOc2ccccc2CCC(=O)O)ccc2c1OCCC2=O |
| 108 to 109 | O=C1COC(=O)C1=Cc1cccc(C(F)(F)F)c1 |
| > 240 | CC#Cc1cc(C)c(C2=C(O)C3(CCN(OC)CC3)N(C)C2=O)c(C)c1 |
| 129 to 131 | O=[N+]([O-])c1cc([N+](=O)[O-])c(Nc2nc(Cl)ccc2C(F)(F)F)c(C(F)(F)F)c1 |
| 54 to 56 | FC(F)(F)c1cnc(Cc2ccc(Cl)cc2)c(Cl)c1 |
| 148 to 150 | CN(C)C(=O)C(C)(C)n1cc(-c2ccccc2)c(-c2ccccc2)n1 |

| melting point [°C] | Compound |
| --- | --- |
| 216 | N#Cc1cccc(C2=NN(C(=O)Nc3ccc(OC(F)(F)F)cc3)CCC2n2cc(Cl)cn2)c1 (stereo not given) |
| 210 | CSc1ccc2ccc(N3C(=O)c4ccccc4C3O)nc2n1 (stereo not given) |
| 154 to 156 | Cc1cccc(OCc2cccc(OCc3ccc4ccccc4n3)c2)c1C(=O)O |
| 107 to 108 | CCOC(=O)c1cn(-c2nc(SC(C)C)nc(C(F)(F)F)c2I)nc1C(F)(F)F |
| 148 to 150 | OCCCCOc1ccc2cc(O)ccc2c1 |
| 143 to 144 | COc1ccc(-c2n[nH]c3ccsc23)cc1 |
| 60 | CCc1cc(C)cc(CC)c1C1=C(OCc2ccccc2)C2CC(C=CC(C)=O)CC2C1=O (stereo not given) |
| 139 to 142 | CN(C)C1CCCN(C(=O)c2ccc([N+](=O)[O-])cc2)c2ccccc21 (stereo not given) |
| 92 to 93.5 | CC(C(=O)N(C)C)n1cc(Cl)c(-c2ccc(Cl)cc2)n1 (stereo not given) |
| 167 to 168 | O=C1N(Cc2ccc(Cl)s2)c2cccc(Cl)c2C12COc1cc3c(cc12)OCO3 (stereo not given) |
| 219 to 221 | O=C(O)COc1cc(Br)c2oc3ccccc3c(=O)c2c1 |
| 201 to 203 | O=P(O)(O)C(O)(Cc1nn(-c2ccc(F)cc2)cc1-c1ccc(Cl)cc1)P(=O)(O)O |
| 249 to 250 | CN1CCCN(C)P1(=O)Cc1ccc(NC(=O)C2=Cc3cc(-c4ccccc4)ccc3CC2)cc1 |
| 213 to 215 | CNC1([C@@H]2CCN(c3ccc4c(=O)c(C(=O)O)cn([C@@H]5C[C@@H]5F)c4c3OC)C2)CC1 |
| 83 | COc1ccccc1S(=O)(=O)OC(Cl)C(=O)c1ccccc1 (stereo not given) |
| 154 | CSc1ccc2c(c1)CC(C)(C)C(=O)N2 |
| 262 to 264 | N#Cc1csc(Oc2ccc(-c3ccc(Oc4scc(C#N)c4C#N)cc3)cc2)c1C#N |
| 72 to 78 | Cc1cc(Cc2cnc(NCCSCc3cc(CN(C)C)ccn3)[nH]c2=O)cnc1C |
| 232 | O=C(O)Cc1cc(C(=O)C=Cc2ccc(Cl)cc2Cl)ccc1O |
